Assays:
[1] = tested on: patient diagnosed with primary hypersomnia; test: Clinical Global Impression of Change (CGI-C) in hypersomnia patients; assay type: in vivo, human; conditions: oral
Procedure: In some embodiments, the subject having hypersomnia is assessed using the Clinical Global Impression of Change (CGI-C).
(§1) The patient was selected for PTZ treatments based on a clinical diagnosis of primary hypersomnia and the presence of an elevated level of an endogenous positive GABAA receptor allosteric modulator in the cerebrospinal fluid (CSF) of the subject relative to the CSF of a subject not having hypersomnia. The patient's sleepiness was scored according to the Epworth Sleepiness Scale (ESS), the Functional Outcomes of Sleep Questionnaire (FOSQ) Total Score, and the Multidimensional Fatigue Inventory (MFI). Additional clinical parameters recorded during the course of PTZ treatment included the Clinical Global Impression of Severity (CGI-S), the Clinical Global Impression of Change (CGI-C), the Beck Depression Inventory (BDI-II) Total Score and the patient's reported feelings of fogginess.
(§2) PTZ was orally administered to the patient twice daily at doses of 100 mg in liquid form in a TANG™ brand juice.
(§3) The patients were selected for PTZ treatments and evaluated as described in Example 2. PTZ was orally administered in liquid form in a TANG™ brand juice.
(§4) The patients were first evaluated while receiving flumazenil (Patient 1) or clarithromycin (Patient 2). […] A second evaluation of the two patients was performed at the end of the wash-out period. PTZ was then administered to Patient 1 for two weeks. During the first week, PTZ was administered to Patient 1 twice daily at doses of 100 mg, and during the second week PTZ was administered to Patient 1 at doses of 200 mg. PTZ was administered to Patient 2 for one week twice daily at doses of 100 mg. The patients were evaluated at the end of the first week (Patients 1 and 2) and at the end of the second week (Patient 1).

[2] = tested on: patient diagnosed with primary hypersomnia; test: Functional Outcomes of Sleep Questionnaire (FOSQ) in hypersomnia patients; assay type: in vivo, human; parameters: key to FOSQ General Productivity Score / FOSQ Social Outcome Score / FOSQ Activity Level Score / FOSQ Vigilance Score / FOSQ Intimate Relationships and Sexual Activity Score: subscale score ~1-4; higher = improvement; key to Functional Outcomes of Sleep Questionnaire (FOSQ) Total Score: total score ~5-20; higher = improvement
Procedure: In some embodiments, the subject having hypersomnia is assessed using the Functional Outcomes of Sleep Questionnaire (FOSQ). The FOSQ can, e.g., be administered to the subject by asking the subject to rate the impact of a sleep disorder on a scale on activities within certain categories. In some embodiments, an FOSQ total score is determined. In some embodiments, the FOSQ total score is determined from one or more subscale scores (e.g., 1, 2, 3, 4, 5, 6, 7, 8, or more subscale scores). In some embodiments, the FOSQ subscale scores can include, e.g., a General Productivity Score, a Social Outcome Score, an Activity Level Score, a Vigilance Score, or an Intimate Relationship and Sexual Activity Score. A skilled artisan will recognize that higher FOSQ total or subscale scores indicate an improvement in the subject's hypersomnia. In some embodiments, FOSQ total scores can range from about 5 to 20. In some embodiments, FOSQ subscale scores can range from about 1 to 4.
as §1, §2, §3, §4

[3] = tested on: patient diagnosed with primary hypersomnia; test: Beck Depression Inventory (BDI-II) in hypersomnia patients; assay type: in vivo, human
Procedure: In some embodiments, the subject having hypersomnia is assessed using the Beck Depression Inventory (current version, published in 1996, is the BDI-II). In some embodiments, a BDI-II total score is determined. In some embodiments, a BDI-II total score of 0-13 indicates minimal depression; a score of 14-19 indicates mild depression; a score of 20-28 indicates moderate depression; and a score of 29-63 indicates severe depression.
as §1, §2, §3, §4

[4] = tested on: patient diagnosed with primary hypersomnia; test: Multidimensional Fatigue Inventory (MFI) in hypersomnia patients; assay type: in vivo, human; parameters: key: MFI subscale score; lower scores indicate improvement
Procedure: In some embodiments, the subject having hypersomnia is assessed using the Multidimensional Fatigue Inventory (MFI). The MFI is typically a 20-item scale designed to evaluate five dimensions of fatigue. In some embodiments, a total MFI score is calculated. In some embodiments, the MFI can include one or more scales (e.g., 1, 2, 3, 4, 5, 6, 7, 8, or more scales). In some embodiments, the MFI scales can include, e.g., a General Fatigue Scale, a Physical Activity Scale, a Reduced Activity Scale, a Reduced Motivation Scale, or a Mental Fatigue Scale. Generally, in MFI lower scores indicate improvements in the subject's […].
as §1, §2, §3, §4

[5] = tested on: patient diagnosed with primary hypersomnia; test: Clinical Global Impression of Severity (CGI-S) in hypersomnia patients; assay type: in vivo, human
Procedure: In some embodiments, the subject having hypersomnia is assessed using the Clinical Global Impression of Severity (CGI-S).
as §1, §2, §3, §4

[6] = tested on: human patients diagnosed with primary hypersomnia; test: Overall comparison of treatments of hypersomnia in human patients; assay type: in vivo; conditions: Patients 1 and 2 diagnosed with primary hypersomnia
Procedure: This example describes the treatment of hypersomnia by administering PTZ to two human patients having hypersomnia who were treated with flumazenil (Patient 1) or clarithromycin (Patient 2) prior to the administration of PTZ.
as §3, §4

[7] = tested on: patient diagnosed with primary hypersomnia; test: Self-reported fogginess score in hypersomnia patients; assay type: in vivo, human; conditions: oral, average of daily scores over one week
Procedure: In some embodiments, the subject having hypersomnia is assessed using a self-reported fogginess score. It is believed that the fogginess score can be used to evaluate a subject's clarity of thinking, which can reflect the subject's cognitive state. In some embodiments, the subject is asked how foggy the subject feels, e.g., since waking up in the morning or since midday. Scoring in a self-reported fogginess score can, e.g., be scored on a scale from 0 to 3.
as §1, §2, §3, §4

[8] = tested on: patient diagnosed with primary hypersomnia; test: Epworth Sleepiness Scale (ESS) in hypersomnia patients; assay type: in vivo, human
Description: In some embodiments, total scores in the ESS range from 0 to 24. A skilled artisan will recognize that in the ESS scores at the lower end (towards 0) of the scale indicate an improvement in a subject's hypersomnia. In some embodiments, scores of 10 and above indicate significant hypersomnia symptoms in a subject. In some embodiments, changes of 2-3 points in the ESS indicate clinically meaningful improvements in the subject's hypersomnia.
as §1, §2, §3, §4

[9] = Patient 1 (patient of Example 2), after 1 week on PTZ 100 mg twice daily
[10] = Patient 1, after 2 weeks on PTZ (200 mg twice daily in 2nd week)
[11] = Patient 2, after 1 week on PTZ 100 mg twice daily
[12] = Patient 1 (patient of Example 2), after 1 week on PTZ 100 mg twice daily, oral
[13] = Patient 1, after 2 weeks on PTZ (200 mg twice daily in 2nd week), oral
[14] = Patient 2, after 1 week on PTZ 100 mg twice daily, oral
[15] = Patient of Example 2, after one week of PTZ treatment vs before treatment
[16] = Patient 2, before PTZ treatment, on clarithromycin
[17] = Patient 1, before PTZ treatment, on flumazenil

## C1CCc2nnnn2CC1 [PTZ, pentylenetetrazol]
[1]; [9]
  Clinical Global Impression of Change (CGI-C): 3
[1]; [10]
  Clinical Global Impression of Change (CGI-C): 2
[1]; [11]
  Clinical Global Impression of Change (CGI-C): 2
[2]; [12]
  FOSQ Activity Level Score: 2.9
  FOSQ General Productivity Score: 3.3
  FOSQ Intimate Relationships and Sexual Activity Score: 2.0
  FOSQ Social Outcome Score: 3.0
  FOSQ Vigilance Score: 3.1
  Functional Outcomes of Sleep Questionnaire (FOSQ) Total Score: 14.5
[2]; [13]
  FOSQ Activity Level Score: 2.9
  FOSQ General Productivity Score: 3.7
  FOSQ Intimate Relationships and Sexual Activity Score: 3.0
  FOSQ Social Outcome Score: 3.5
  FOSQ Vigilance Score: 3.7
  Functional Outcomes of Sleep Questionnaire (FOSQ) Total Score: 17.0
[2]; [14]
  FOSQ Activity Level Score: 3.4
  FOSQ General Productivity Score: 3.4
  FOSQ Intimate Relationships and Sexual Activity Score: 4.0
  FOSQ Social Outcome Score: 3.0
  FOSQ Vigilance Score: 2.9
  Functional Outcomes of Sleep Questionnaire (FOSQ) Total Score: 16.5
[2]; [15]
  FOSQ Total Score increase: 8 points
[3]; [12]
  Beck Depression Inventory (BDI-II) Total Score: 8
[3]; [13]
  Beck Depression Inventory (BDI-II) Total Score: 5
[3]; [14]
  Beck Depression Inventory (BDI-II) Total Score: 0
[4]; [12]
  Multidimensional Fatigue Inventory (MFI) General Fatigue Scale: 18
  Multidimensional Fatigue Inventory (MFI) Mental Fatigue Scale: 7
  Multidimensional Fatigue Inventory (MFI) Physical Fatigue Scale: 14
  Multidimensional Fatigue Inventory (MFI) Reduced Activity Scale: 16
  Multidimensional Fatigue Inventory (MFI) Reduced Motivation Scale: 9
[4]; [13]
  Multidimensional Fatigue Inventory (MFI) General Fatigue Scale: 15
  Multidimensional Fatigue Inventory (MFI) Mental Fatigue Scale: 8
  Multidimensional Fatigue Inventory (MFI) Physical Fatigue Scale: 14
  Multidimensional Fatigue Inventory (MFI) Reduced Activity Scale: 16
  Multidimensional Fatigue Inventory (MFI) Reduced Motivation Scale: 11
[4]; [14]
  Multidimensional Fatigue Inventory (MFI) General Fatigue Scale: 13
  Multidimensional Fatigue Inventory (MFI) Mental Fatigue Scale: 6
  Multidimensional Fatigue Inventory (MFI) Physical Fatigue Scale: 7
  Multidimensional Fatigue Inventory (MFI) Reduced Activity Scale: 6
  Multidimensional Fatigue Inventory (MFI) Reduced Motivation Scale: 7
[5]; [12]
  Clinical Global Impression of Severity (CGI-S): 5
[5]; [13]
  Clinical Global Impression of Severity (CGI-S): 4
[5]; [14]
  Clinical Global Impression of Severity (CGI-S): 3
[6]
  Efficacy in the treatment of hypersomnia relative to flumazenil and clarithromycin: superior efficacy
[7]; [9]
  How foggy have you felt since midday?: 0.1
  How foggy have you felt since waking up this morning?: 1.1
[7]; [10]
  How foggy have you felt since midday?: 0.7
  How foggy have you felt since waking up this morning?: 1.0
[7]; [11]
  How foggy have you felt since midday?: 1.2
  How foggy have you felt since waking up this morning?: 2.1
[8]; [12]
  Epworth Sleepiness Scale (ESS) Total Score: 13
[8]; [13]
  Epworth Sleepiness Scale (ESS) Total Score: 9
[8]; [14]
  Epworth Sleepiness Scale (ESS) Total Score: 8
[8]; [15]
  ESS Total Score decrease: 6 points

## CC[C@H]1OC(=O)[C@H](C)[C@@H](O[C@H]2C[C@@](C)(OC)[C@@H](O)[C@H](C)O2)[C@H](C)[C@@H](O[C@@H]2O[C@H](C)C[C@H](N(C)C)[C@H]2O)[C@](C)(OC)C[C@@H](C)C(=O)[C@H](C)[C@@H](O)[C@]1(C)O [Clarithromycin, clarithromycin]
[2]; [16]
  FOSQ Activity Level Score: 2.3
  FOSQ General Productivity Score: 3.4
  FOSQ Intimate Relationships and Sexual Activity Score: 4.0
  FOSQ Social Outcome Score: 3.0
  FOSQ Vigilance Score: 2.1
  Functional Outcomes of Sleep Questionnaire (FOSQ) Total Score: 15
[3]; [16]
  Beck Depression Inventory (BDI-II) Total Score: 0
[4]; [16]
  Multidimensional Fatigue Inventory (MFI) General Fatigue Scale: 17
  Multidimensional Fatigue Inventory (MFI) Mental Fatigue Scale: 9
  Multidimensional Fatigue Inventory (MFI) Physical Fatigue Scale: 13
  Multidimensional Fatigue Inventory (MFI) Reduced Activity Scale: 9
  Multidimensional Fatigue Inventory (MFI) Reduced Motivation Scale: 13
[5]; [16]
  Clinical Global Impression of Severity (CGI-S): 4
[8]; [16]
  Epworth Sleepiness Scale (ESS) Total Score: 8

## CCOC(=O)c1ncn2c1CN(C)C(=O)c1cc(F)ccc1-2 [Flumazenil, flumazenil]
[2]; [17]
  FOSQ Activity Level Score: 1.4
  FOSQ General Productivity Score: 2.4
  FOSQ Intimate Relationships and Sexual Activity Score: 1.0
  FOSQ Social Outcome Score: 3.0
  FOSQ Vigilance Score: 2.3
  Functional Outcomes of Sleep Questionnaire (FOSQ) Total Score: 10
[3]; [17]
  Beck Depression Inventory (BDI-II) Total Score: 16
[4]; [17]
  Multidimensional Fatigue Inventory (MFI) General Fatigue Scale: 19
  Multidimensional Fatigue Inventory (MFI) Mental Fatigue Scale: 16
  Multidimensional Fatigue Inventory (MFI) Physical Fatigue Scale: 19
  Multidimensional Fatigue Inventory (MFI) Reduced Activity Scale: 19
  Multidimensional Fatigue Inventory (MFI) Reduced Motivation Scale: 12
[5]; [17]
  Clinical Global Impression of Severity (CGI-S): 6
[8]; [17]
  Epworth Sleepiness Scale (ESS) Total Score: 12

Source: US10688103B2, “Methods for treating hypersomnia” (BALANCE THERAPEUTICS, INC., priority 2014, dated 2020)
